Reference: PMC10474815 (Science (New York, N.Y.), 2023)

Experiments:
[1] = target: T1, CYPA:RMC-4998:KRAS^G12C tri-complex (Homo sapiens, UniProt P01116+P62937, G12C); assay: Tri-complex stability after compound washout, biophysical assays; assay type: binding
[2] = target: KRAS^G13C (Homo sapiens, UniProt P01116, G13C); assay: Activity on RAS variants
[3] = target: T1, CYPA:RMC-4998:KRAS^G12C tri-complex; assay: Tri-complex stability after compound washout, cellular experiments; assay type: cell-based
[4] = target: KRAS^G12C (Homo sapiens, UniProt P01116+P62937, G12C); assay: Kinetic target engagement assay; assay type: biochemical; settings: active KRAS G12C in the presence of CYPA
[5] = target: CYPA (Homo sapiens, UniProt P62937); assay: Reversible binary complex formation with CYPA; assay type: binding
[6] = target: GDP-loaded KRAS^G12C (Homo sapiens, UniProt P01116+P62937, G12C); assay: Native PAGE tri-complex formation with GDP-loaded KRAS G12C; assay type: binding; settings: KRAS G12C 2 μM, compound 10 μM, CYPA 2 μM
[7] = test system: KRAS^G12C mutant cells; assay: Cancer cell line panel viability, 3D CellTiter-Glo; assay type: cell-based; settings: n = 17 G12C, n = 11 non-G12C cell lines
[8] = target: KRAS^G12C in MIA PaCa-2 cells (Homo sapiens, UniProt P01116+P62937, G12C); assay: Covalent modification of KRAS G12C in cells; assay type: cell-based
[9] = test system: KRAS^G12C mutant CRC PDX models; assay: Patient-derived xenograft panel, CRC; assay type: in vivo; settings: 200 mg/kg orally once daily, 28-day treatment; 6/15 models
[10] = test system: KRAS^G12C mutant NSCLC PDX models; assay: Patient-derived xenograft panel, NSCLC; assay type: in vivo; settings: 200 mg/kg orally once daily, 28-day treatment; 19/25 models
[11] = test system: NCI-H358 xenografts
[12] = test system: CYPA-null H358 cells

CCn1c(-c2cccnc2[C@H](C)OC)c2c3cc(ccc31)-c1cccc(c1)C[C@H](NC(=O)[C@H](C(C)C)N1CC[C@]3(CCN(C(=O)C#CC(C)(C)N(C)C)C3)C1=O)C(=O)N1CCC[C@H](N1)C(=O)OCC(C)(C)C2 [RMC-4998]
Tri-complex half-life after compound washout [1]: greater than 8 hours | Activity on KRAS G13C [2]: little, if any, activity | Tri-complex half-life after compound washout [3]: greater than 8 hours | Covalent engagement efficiency kinact/KI [4]: 272,000 M^−1s^−1 | koff of binary complex with CYPA [5]: 1.0 s⁻¹ | Kd ([5]; read-out: Kd of binary complex with CYPA): 1090 nM | Complex formation with GDP-loaded KRAS G12C [6]: No complex was detected | Selectivity index (G12C versus non-G12C mutant models) [7]: 1450 times | Time to complete covalent modification of KRAS G12C [8]: ≤ 5 min

CCn1c(-c2cccnc2[C@H](C)OC)c2c3cc(ccc31)N1CCO[C@@H](C[C@H](NC(=O)[C@H](C(C)C)N(C)C(=O)C3(F)CCN(C(=O)C#CC(C)(C)N(C)C)CC3)C(=O)N3CCC[C@H](N3)C(=O)OCC(C)(C)C2)C1 [RMC-6291]
Models with mean tumor regression [9]: 40% | Models with mean tumor regression [10]: 76% | Tolerability ([11]; mouse, in vivo, po): well tolerated | Tumor response ([11]; oral once daily, 28 days): near complete tumor regression | Duration of KRAS G12C engagement and inhibition of ERK phosphorylation in tumors ([11]; single dose): ~ 24 hours | Selectivity index (G12C versus non-G12C mutant models) [7]: 13,500 times

C=C(F)C(=O)N1CCN(c2nc(OC[C@@H]3CCCN3C)nc3c2CCN(c2cccc4cccc(Cl)c24)C3)C[C@@H]1CC#N [adagrasib]
Effect of CYPA loss on cellular activity [12]: no effect
